This is an account of results in PubChem BioAssay (NCI).

Some test systems named below: HOP-92 NSCLC; A549 NSCLC; HCT-116 colon; KM12 colon; SK-MEL-28 melanoma; HS 578T breast; NCI-H522 lung; ACHN renal; PC-3 prostate; MOLT-4 leukemia; UACC-257 melanoma; IGROV1 ovarian; SK-OV-3 ovarian; SF-539 CNS; MALME-3M melanoma; OVCAR-5 ovarian.
Common to all, as to assay: NCI anticancer screen, dose series, 48 h

Structures are written as SMILES.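 Where inhibition never reached the appropriate level, the endpoint shown equals the highest concentration tested. Otherwise, values were interpolated linearly from a five-concentration, 48-hour dose response in 96-well plates. At the TGI there is no net growth.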

For the compound `C=CCN(CCN(CC=C)S(=O)(=O)c1ccc(C)cc1)S(=O)(=O)c1ccc(C)cc1`, the TGI with HOP-92 NSCLC, in the assay on A549 NSCLC, with HCT-116 colon, with KM12 colon, in the assay with SK-MEL-28 melanoma and in the assay with HS 578T breast was more than 100 µM throughout. For the same compound, the TGI in the assay on NCI-H522 lung, in the assay with ACHN renal, with PC-3 prostate, in the assay on MOLT-4 leukemia and in the assay with UACC-257 melanoma was more than 100 µM each time.
Take `C[C@H]1O[C@@H](C(C)(C)C)OC(=O)[C@@H]1C(OC(=O)c1ccccc1)c1cccc2ccccc12` (stereo partly specified): the TGI in the assay on A549 NSCLC, with IGROV1 ovarian, in the assay on HCT-116 colon, in the assay on KM12 colon, in the assay with SK-MEL-28 melanoma and with SK-OV-3 ovarian was more than 100 µM in each case. For the same compound, the TGI in the assay with HS 578T breast, in the assay on NCI-H522 lung, in the assay with ACHN renal, in the assay with SF-539 CNS, with PC-3 prostate and in the assay on MOLT-4 leukemia was more than 100 µM throughout. The TGI in the assay on MALME-3M melanoma, with OVCAR-5 ovarian and in the assay on UACC-257 melanoma was more than 100 µM each time.
In the case of `CC(=O)c1c(O)n(-c2ccc(C)cc2)c(=O)c2c(N)n[nH]c12`, the TGI in the assay on A549 NSCLC, with IGROV1 ovarian, in the assay on HCT-116 colon, in the assay on KM12 colon, in the assay with SK-MEL-28 melanoma and with SK-OV-3 ovarian was more than 100 µM each time. The TGI with HS 578T breast, with NCI-H522 lung, in the assay with SF-539 CNS, with PC-3 prostate, in the assay on MOLT-4 leukemia and in the assay with MALME-3M melanoma was more than 100 µM throughout. For the same compound, the TGI in the assay on OVCAR-5 ovarian and in the assay on UACC-257 melanoma was more than 100 µM each time.
Take `Cc1cc(N(CCC#N)CCC#N)ccc1/C(N=Nc1ccc([N+](=O)[O-])cc1)=N\NC(=O)c1ccccc1`: the TGI in the assay with A549 NSCLC was more than 100 µM; in the assay on IGROV1 ovarian, more than 100 µM; in the assay on HCT-116 colon, more than 100 µM; with KM12 colon, more than 100 µM; in the assay on SK-OV-3 ovarian, more than 100 µM; in the assay with HS 578T breast, 64.5 µM. Moreover, the TGI with NCI-H522 lung is 44.7 µM; in the assay on ACHN renal, more than 100 µM; with SF-539 CNS, 92.9 µM; with PC-3 prostate, more than 100 µM; with MOLT-4 leukemia it was more than 100 µM; in the assay with MALME-3M melanoma, more than 100 µM. The TGI in the assay on OVCAR-5 ovarian and with UACC-257 melanoma was more than 100 µM each time.
For the compound `COC(=O)C1(O)C(c2ccccc2)NC2(C)CCCC21` (stereo unspecified), the TGI in the assay on A549 NSCLC, in the assay with IGROV1 ovarian, in the assay with HCT-116 colon, with KM12 colon, with SK-MEL-28 melanoma and with SK-OV-3 ovarian was more than 100 µM throughout. In addition, the TGI in the assay on HS 578T breast, with NCI-H522 lung, with ACHN renal, in the assay on SF-539 CNS, in the assay with PC-3 prostate and in the assay on MOLT-4 leukemia was more than 100 µM each time. Also, the TGI with MALME-3M melanoma and in the assay on UACC-257 melanoma was more than 100 µM each time.
Regarding `Cc1ccc(/S(Cc2ccccc2)=N\S(=O)(=O)c2ccc(C)cc2)cc1` (stereo unspecified), the TGI in the assay on HOP-92 NSCLC, with A549 NSCLC, with HCT-116 colon, in the assay on KM12 colon, with SK-MEL-28 melanoma and in the assay on ACHN renal was more than 100 µM throughout. In addition, the TGI in the assay with SF-539 CNS, in the assay with PC-3 prostate, with MALME-3M melanoma, with OVCAR-5 ovarian and in the assay with UACC-257 melanoma was more than 100 µM in each case.
`CC(=O)O[C@H]1C(=O)[C@@]2(C)[C@H]([C@H](OC(=O)c3ccccc3)[C@]3(O)C[C@H](OC(=O)[C@H](O)[C@@H](NC(=O)c4ccc(N(C)C)cc4)c4ccccc4)C(C)=C1C3(C)C)[C@]1(OC(C)=O)CO[C@@H]1C[C@@H]2O`: the TGI with HOP-92 NSCLC, in the assay with A549 NSCLC, with IGROV1 ovarian, with HCT-116 colon, with KM12 colon and in the assay on SK-MEL-28 melanoma was more than 50 µM each time. The TGI is more than 50 µM with SK-OV-3 ovarian; 0.00632 µM with HS 578T breast; more than 50 µM in the assay on ACHN renal; more than 50 µM in the assay on PC-3 prostate; more than 21.9 µM in the assay on MOLT-4 leukemia; more than 50 µM with OVCAR-5 ovarian.
For the compound `CCOC(=O)C1(C(=O)OCC)C=C(c2ccccc2)N(C2OC(COC(C)=O)C(OC(C)=O)C(OC(C)=O)C2OC(C)=O)C1=S` (stereo unspecified), the TGI in the assay on HOP-92 NSCLC, in the assay on A549 NSCLC, in the assay on IGROV1 ovarian, in the assay with HCT-116 colon, in the assay with KM12 colon and in the assay with SK-MEL-28 melanoma was more than 100 µM in each case. Further, the TGI with SK-OV-3 ovarian, with HS 578T breast, in the assay on NCI-H522 lung, in the assay on SF-539 CNS, in the assay with MOLT-4 leukemia and in the assay with MALME-3M melanoma was more than 100 µM each time. In addition, the TGI in the assay on OVCAR-5 ovarian and in the assay on UACC-257 melanoma was more than 100 µM in each case.
As to `O=C1C(Cl)=C(NCCF)C(=O)c2ncccc21`, the TGI worked out at 4.07 µM in the assay with A549 NSCLC; 3.43 µM with IGROV1 ovarian; 3.51 µM in the assay on HCT-116 colon; 3.38 µM in the assay with KM12 colon; 3.41 µM in the assay with SK-MEL-28 melanoma; 3.74 µM in the assay on SK-OV-3 ovarian. Also, the TGI was found to be 4 µM with HS 578T breast; 5.22 µM with ACHN renal; 3.23 µM in the assay on SF-539 CNS; 3.09 µM in the assay with PC-3 prostate; 3.72 µM with MOLT-4 leukemia; 2.98 µM in the assay on MALME-3M melanoma. The TGI was determined as 3.29 µM in the assay on OVCAR-5 ovarian and 3.03 µM in the assay with UACC-257 melanoma.
For `CN(C)N=Nc1ccc2[nH]c(=O)[nH]c2c1`, the TGI in the assay with A549 NSCLC, in the assay on IGROV1 ovarian, with HCT-116 colon, in the assay with KM12 colon, with SK-MEL-28 melanoma and in the assay with SK-OV-3 ovarian was more than 100 µM in each case. In addition, the TGI in the assay on HS 578T breast, in the assay on NCI-H522 lung, with ACHN renal, with SF-539 CNS, with PC-3 prostate and with MALME-3M melanoma was more than 100 µM in each case. The TGI in the assay with OVCAR-5 ovarian and with UACC-257 melanoma was more than 100 µM in each case.
For the compound `CCOc1cc(-c2nc3cc(F)ccc3s2)ccc1O`, the TGI with A549 NSCLC is 37 µM; in the assay with IGROV1 ovarian, 26 µM; with HCT-116 colon, 47.3 µM; in the assay with KM12 colon, 36 µM; in the assay on SK-MEL-28 melanoma, 43.1 µM; with SK-OV-3 ovarian, 33 µM. Moreover, the TGI was 24.2 µM in the assay with NCI-H522 lung; 29.9 µM in the assay on ACHN renal; 34.2 µM in the assay on SF-539 CNS; 28.7 µM with PC-3 prostate; 29.8 µM in the assay with MALME-3M melanoma; 33.3 µM with OVCAR-5 ovarian. In the assay with UACC-257 melanoma, this compound came in with a TGI of 31 µM.
As to `CC(=O)NC1C(OCc2ccccc2)OC(CO)C(O)C1OCC(=O)N[C@@H](C)C(=O)N[C@H](CCC(=O)NCCNc1ccc([N+](=O)[O-])c2[nH]c3ccccc3c(=O)c12)C(N)=O` (stereo partly specified), the TGI in the assay on HOP-92 NSCLC is 80.8 µM; in the assay with HCT-116 colon, more than 100 µM; in the assay with KM12 colon, more than 100 µM; in the assay with SK-MEL-28 melanoma, more than 100 µM; in the assay on SK-OV-3 ovarian it was more than 100 µM; with HS 578T breast, more than 100 µM. The TGI with NCI-H522 lung was more than 100 µM; in the assay on ACHN renal, 61.4 µM; with SF-539 CNS it was more than 100 µM; with MALME-3M melanoma, more than 100 µM; in the assay with OVCAR-5 ovarian it was more than 100 µM; in the assay on UACC-257 melanoma it was 54.3 µM.
For the compound `CC1(C)OC2OC(COC(=O)c3ccc(C#N)cc3)C3OC(C)(C)OC3C2O1` (stereo unspecified), the TGI with A549 NSCLC, in the assay with IGROV1 ovarian, with HCT-116 colon, in the assay with KM12 colon, in the assay on SK-MEL-28 melanoma and in the assay with SK-OV-3 ovarian was more than 75 µM each time. Moreover, the TGI in the assay with NCI-H522 lung, with ACHN renal, in the assay with SF-539 CNS, with PC-3 prostate, with MOLT-4 leukemia and in the assay on MALME-3M melanoma was more than 75 µM in each case. Also, the TGI in the assay with OVCAR-5 ovarian and in the assay on UACC-257 melanoma was more than 75 µM each time.
In the case of `CCN(CC)CCN1C(=O)C(=O)N(c2cccc3ccccc23)C1=O`, the TGI in the assay with A549 NSCLC, in the assay with IGROV1 ovarian, in the assay on HCT-116 colon, in the assay on KM12 colon, in the assay on SK-MEL-28 melanoma and with SK-OV-3 ovarian was more than 10 µM in each case. The TGI with HS 578T breast, in the assay on NCI-H522 lung, with ACHN renal, in the assay on SF-539 CNS, in the assay on PC-3 prostate and in the assay with MOLT-4 leukemia was more than 10 µM in each case. The TGI with MALME-3M melanoma and in the assay on OVCAR-5 ovarian was more than 10 µM each time.
Turning to `COCOc1cc(OC)ccc1C/C(=N/O)C(=O)OC`, the TGI in the assay on A549 NSCLC, in the assay with IGROV1 ovarian, with HCT-116 colon, in the assay with KM12 colon, with SK-MEL-28 melanoma and in the assay on SK-OV-3 ovarian was more than 100 µM throughout. The TGI in the assay with HS 578T breast, in the assay on NCI-H522 lung, with ACHN renal, in the assay on SF-539 CNS, with PC-3 prostate and in the assay on MOLT-4 leukemia was more than 100 µM in each case. Moreover, the TGI in the assay with MALME-3M melanoma, in the assay with OVCAR-5 ovarian and in the assay on UACC-257 melanoma was more than 100 µM each time.
